Counter-ions that a name gives are not always drawn.
Tests used:
[1] = tested on: sonic hedgehog pathway; test: Human hedgehog reporter assay Daoy-GliLuc (DGL); assay type: cell-based; settings: Daoy human medulloblastoma cells, Gli-luciferase reporter; read-out: Daoy Avg. EC50
From the text: (§1) Mouse (TM3: mouse Leydig cells; S12: mouse embryonic mesenchymal cells) and human (Daoy: human medulloblastoma cell; HepM: human embryonic palatal mesenchymal cell) cell lines are used to screen small molecules for their ability to modulate the activity of the sonic hedgehog pathway (Table 1, Table 2, and Table 3). Stable hedgehog pathway reporter cell lines are established by specific antibiotic selection following transfection of a reporter plasmid containing a luciferase gene located directly downstream from the gli promoter. Consequently, any observable changes in cellular luciferase activity may be attributed to changes in sonic hedgehog pathway activity in mouse and human cells, respectively, since gli is the major by-product of this pathway. To calculate activity, we generate an eleven point dose curve for each compound using 1:3 dilutions in 96 well assay plates. Each plate tested also contains low and high control to establish maximal pathway activation so to establish/compare a percentage activation of each tested compound (AMAX) on respective plates. Also we calculate EC50 values, or a concentration where the pathway will be exactly 50% activated, for each tested compound to determine potency. In these cell lines, compounds that register >20% AMAX values are considered active.
(§2) Stable hedgehog pathway reporter cell lines are established following specific antibiotic selection following transfection of a reporter plasmid In short, typically cells are plated in MicroTiter-plates at 10,000-20,000 cells per well, in growth media (containing 10%-20% FBS). After 48-72 hrs (HGL and DGL respectively) the media in the assay plates is switched to low-serum containing media (0.5% FBS). At that time compounds are added (at 1-5 μM) to the assay plates, in the presence or absence of hedgehog protein (octyl-modified version; 1-5 ng/ml). After another 24 hrs of incubation, the media from the assay plates is discarded and replaced with luciferase assay-mix. Subsequently, plates are incubated at RT for ˜15-30 mins and then read in a luminometer. [note: addition of the Hedgehog protein, although not critical, will sensitize the assay allowing the identification of weak actives].

[2] = tested on: sonic hedgehog pathway; test: Hedgehog pathway Gli-luciferase reporter assay, TM3 cells; assay type: cell-based; settings: TM3 mouse Leydig cells
From the text: as §1, §2

Row | SMILES | EC50 [1] | EC50 [2]
1 | CN[C@H]1CC[C@@H](N(Cc2cc(-c3ccc(C(F)(F)F)cc3)ccc2OC)C(=O)c2sc3ccccc3c2Cl)CC1 [Compound 306, 3-Chloro-benzo[b]thiophene-2-carboxylic acid (4-methoxy-4′-trifluoromethyl-biphenyl-3-ylmethyl)-(4-methylamino-cyclohexyl)-amide trifluoroacetate] | < 50 nM | 50 to 250 nM
2 | CN[C@H]1CC[C@@H](N(Cc2cc(-c3ccc(OC(F)(F)F)cc3)ccc2OC)C(=O)c2sc3ccccc3c2Cl)CC1 [Compound 307, 3-Chloro-benzo[b]thiophene-2-carboxylic acid (4-methoxy-4′-trifluoromethoxy-biphenyl-3-ylmethyl)-(4-methylamino-cyclohexyl)-amide hydrochloride] | < 50 nM | < 50 nM
3 | CN[C@H]1CC[C@@H](N(Cc2cc(-c3ccc(Cl)cc3)ccc2OC)C(=O)c2sc3ccccc3c2Cl)CC1 [Compound 308, 3-Chloro-benzo[b]thiophene-2-carboxylic acid (4′-chloro-4-methoxy-biphenyl-3-ylmethyl)-(4-methylamino-cyclohexyl)-amide hydrochloride] | < 50 nM | < 50 nM
4 | CCOc1ccc(-c2ccc(C(F)(F)F)cc2)cc1CN(C(=O)c1sc2ccccc2c1Cl)[C@H]1CC[C@@H](NC)CC1 [Compound 309, 3-Chloro-benzo[b]thiophene-2-carboxylic acid (4-ethoxy-4′-trifluoromethyl-biphenyl-3-ylmethyl)-(4-methylamino-cyclohexyl)-amide hydrochloride] | < 50 nM | 50 to 250 nM
5 | CCOc1ccc(-c2ccc(OC)cc2)cc1CN(C(=O)c1sc2ccccc2c1Cl)[C@H]1CC[C@@H](NC)CC1 [Compound 312, 3-Chloro-benzo[b]thiophene-2-carboxylic acid (4-ethoxy-4′-methoxy-biphenyl-3-ylmethyl)-(4-methylamino-cyclohexyl)-amide hydrochloride] | 50 to 250 nM | 
6 | CCOc1ccc(-c2ccccc2)cc1CN(C(=O)c1sc2ccccc2c1Cl)[C@H]1CC[C@@H](NC)CC1 [Compound 313, 3-Chloro-benzo[b]thiophene-2-carboxylic acid (4-ethoxy-biphenyl-3-ylmethyl)-(4-methylamino-cyclohexyl)-amide hydrochloride] | < 50 nM | 50 to 250 nM
7 | CN[C@H]1CC[C@@H](N(Cc2cc(-c3ccc(F)cc3)ccc2OC)C(=O)c2sc3ccccc3c2Cl)CC1 [Compound 314, 3-Chloro-benzo[b]thiophene-2-carboxylic acid (4′-fluoro-4-methoxy-biphenyl-3-ylmethyl)-(4-methylamino-cyclohexyl)-amide hydrochloride] | < 50 nM | < 50 nM
8 | CN[C@H]1CC[C@@H](N(Cc2cc(-c3cnc(N(C)C)nc3)ccc2OC)C(=O)c2sc3ccccc3c2Cl)CC1 [Compound 321, 3-Chloro-benzo[b]thiophene-2-carboxylic acid [5-(2-dimethylamino-pyrimidin-5-yl)-2-methoxy-benzyl]-(4-methylamino-cyclohexyl)-amide dihydrochloride] | 50 to 250 nM | 1000 to 2500 nM
9 | CNc1ncc(-c2ccc(OC)c(CN(C(=O)c3sc4ccccc4c3Cl)[C@H]3CC[C@@H](NC)CC3)c2)cn1 [Compound 322, 3-Chloro-benzo[b]thiophene-2-carboxylic acid [2-methoxy-5-(2-methylamino-pyrimidin-5-yl)-benzyl]-(4-methylamino-cyclohexyl)-amide dihydrochloride] | 50 to 250 nM | 250 to 1000 nM
10 | CN[C@H]1CC[C@@H](N(Cc2cc(-c3cnc(N)nc3)ccc2OC)C(=O)c2sc3ccccc3c2Cl)CC1 [Compound 323, 3-Chloro-benzo[b]thiophene-2-carboxylic acid [5-(2-amino-pyrimidin-5-yl)-2-methoxy-benzyl]-(4-methylamino-cyclohexyl)-amide dihydrochloride] | < 50 nM | 50 to 250 nM
11 | CN[C@H]1CC[C@@H](N(Cc2cc(-c3cccc(C(C)=O)c3)ccc2OC)C(=O)c2sc3cccc(F)c3c2Cl)CC1 [Compound 363, 3-Chloro-4-fluoro-benzo[b]thiophene-2-carboxylic acid (3′-acetyl-4-methoxy-biphenyl-3-ylmethyl)-(4-methylamino-cyclohexyl)-amide hydrochloride] | < 50 nM | < 50 nM
12 | CN[C@H]1CC[C@@H](N(Cc2cc(-c3cccc(C#N)c3)ccc2OC)C(=O)c2sc3cccc(F)c3c2Cl)CC1 [Compound 365, 3-Chloro-4-fluoro-benzo[b]thiophene-2-carboxylic acid (3′-cyano-4-methoxy-biphenyl-3-ylmethyl)-(4-methylamino-cyclohexyl)-amide hydrochloride] | < 50 nM | < 50 nM
13 | CN[C@H]1CC[C@@H](N(Cc2cc(-c3ccc(C#N)cc3)ccc2OC)C(=O)c2sc3cccc(F)c3c2Cl)CC1 [Compound 366, 3-Chloro-4-fluoro-benzo[b]thiophene-2-carboxylic acid (4′-cyano-4-methoxy-biphenyl-3-ylmethyl)-(4-methylamino-cyclohexyl)-amide hydrochloride] | < 50 nM | < 50 nM
14 | CCOc1ccc(-c2cnc(N(C)C)nc2)cc1CN(C(=O)c1sc2ccccc2c1Cl)[C@H]1CC[C@H](NC)CC1 [Compound 401, 3-Chloro-benzo[b]thiophene-2-carboxylic acid [5-(2-dimethylamino-pyrimidin-5-yl)-2-ethoxy-benzyl]-(4-methylamino-cyclohexyl)-amide dihydrochloride] |  | 1000 to 2500 nM
15 | CN[C@H]1CC[C@H](N(Cc2cc(-c3ccnc(C(C)=O)c3)ccc2OC)C(=O)c2sc3c(F)ccc(F)c3c2Cl)CC1 [Compound 407, 3-Chloro-4,7-difluoro-benzo[b]thiophene-2-carboxylic acid [5-(2-acetyl-pyridin-4-yl)-2-methoxy-benzyl]-(4-methylamino-cyclohexyl)-amide dihydrochloride] |  | < 50 nM
16 | CN[C@H]1CC[C@H](N(Cc2cc(-c3ccc(OC)cc3)ccc2F)C(=O)c2sc3ccccc3c2Cl)CC1 [Compound 421, 3-Chloro-benzo[b]thiophene-2-carboxylic acid (4-fluoro-4′-methoxy-biphenyl-3-ylmethyl)-(4-methylamino-cyclohexyl)-amide trifluoroacetate] |  | 250 to 1000 nM
17 | CN[C@H]1CC[C@H](N(Cc2cc(-c3ccc(C(F)(F)F)cc3)ccc2F)C(=O)c2sc3ccccc3c2Cl)CC1 [Compound 422, 3-Chloro-benzo[b]thiophene-2-carboxylic acid (4-fluoro-4′-trifluoromethyl-biphenyl-3-ylmethyl)-(4-methylamino-cyclohexyl)-amide trifluoroacetate] |  | 250 to 1000 nM
18 | CN[C@H]1CC[C@H](N(Cc2cc(-c3ccc(C)cc3)ccc2F)C(=O)c2sc3ccccc3c2Cl)CC1 [Compound 427, 3-Chloro-benzo[b]thiophene-2-carboxylic acid (4-fluoro-4′-methyl-biphenyl-3-ylmethyl)-(4-methylamino-cyclohexyl)-amide trifluoroacetate] |  | 250 to 1000 nM
19 | CN[C@H]1CC[C@H](N(Cc2cc(-c3ccc(Cl)cc3)ccc2F)C(=O)c2sc3ccccc3c2Cl)CC1 [Compound 428, 3-Chloro-benzo[b]thiophene-2-carboxylic acid (4′-chloro-4-fluoro-biphenyl-3-ylmethyl)-(4-methylamino-cyclohexyl)-amide trifluoroacetate] |  | 250 to 1000 nM
20 | CN[C@H]1CC[C@H](N(Cc2cc(-c3ccc(NC(C)=O)cc3)ccc2F)C(=O)c2sc3ccccc3c2Cl)CC1 [Compound 429, 3-Chloro-benzo[b]thiophene-2-carboxylic acid (4′-acetylamino-4-fluoro-biphenyl-3-ylmethyl)-(4-methylamino-cyclohexyl)-amide trifluoroacetate] |  | 1000 to 2500 nM
21 | CN[C@H]1CC[C@H](N(Cc2cc(-c3ccc(N(C)C(C)=O)cc3)ccc2F)C(=O)c2sc3ccccc3c2Cl)CC1 [Compound 430, 3-Chloro-benzo[b]thiophene-2-carboxylic acid [4′-(acetyl-methyl-amino)-4-fluoro-biphenyl-3-ylmethyl]-(4-methylamino-cyclohexyl)-amide trifluoroacetate] |  | 1000 to 2500 nM
22 | CN[C@H]1CC[C@H](N(Cc2cc(-c3ccc(NC=O)cc3)ccc2F)C(=O)c2sc3ccccc3c2Cl)CC1 [Compound 431, 3-Chloro-benzo[b]thiophene-2-carboxylic acid (4-fluoro-4′-formylamino-biphenyl-3-ylmethyl)-(4-methylamino-cyclohexyl)-amide trifluoroacetate] |  | 50 to 250 nM
23 | CNc1ccc(-c2ccc(F)c(CN(C(=O)c3sc4ccccc4c3Cl)[C@H]3CC[C@H](NC)CC3)c2)cc1 [Compound 432, 3-Chloro-benzo[b]thiophene-2-carboxylic acid (4-fluoro-4′-methylamino-biphenyl-3-ylmethyl)-(4-methylamino-cyclohexyl)-amide dihydrochloride] |  | 250 to 1000 nM
